Measured values reported in patent US6749336B2, “Ionic liquid temperature sensor” (priority 2002, dated 2004).

Tested on: not listed separately
Assay: decomposition temperature of ionic liquids
Assay type: physicochemical
Settings: 1-alkyl-pyridinium ionic liquids, Table 3, citation not given

SMILES | Decomposition Temperature
CCCC[n+]1cccc(C)c1.F[P-](F)(F)(F)(F)F [[1-butyl-3-methylpyridinium] [PF6]] | 347 °C
CCCC[n+]1ccc(C)cc1.[Cl-] [[1-butyl-4-methylpyridinium] Cl] | 214 °C
CCCC[n+]1ccc(C)cc1.F[B-](F)(F)F [[1-butyl-4-methylpyridinium] [BF4]] | 332 °C
CCCC[n+]1ccc(C)cc1.F[P-](F)(F)(F)(F)F [[1-butyl-4-methylpyridinium] [PF6]] | 358 °C
CCCCCC[n+]1ccc(C)cc1.[Cl-] [[1-hexyl-4-methylpyridinium] Cl] | 218 °C
CCCCc1ccc[nH+]c1.F[P-](F)(F)(F)(F)F [[3-n-butyl-pyridinium] [PF6]] | 125-444 °C
F[P-](F)(F)(F)(F)F.c1ccc(CCCc2cc[nH+]cc2)cc1 [[4-phenylpropyl-pyridinium] [PF6]] | 163-474 °C

Tested on: rats
Assay: not given
Settings: acute toxicity; cited from earlier work

SMILES | LD50 [mg/kg]
CCCCCCOCn1cc[n+](C)c1.F[B-](F)(F)F [1-hexyloxymethyl-3-methylimidazolium tetrafluoroborate] | 1400

Tested on: not given
Assay: not given
Settings: 1-alkyl-3-methylimidazolium ionic liquids, Table 2, literature citations a-g; cited from earlier work

SMILES | Decomposition Temperature [°C]
CCC[n+]1ccn(C)c1.[Cl-] [[C3mim] Cl] | 282
CCCn1cc[n+](C)c1.F[P-](F)(F)(F)(F)F [[C3mim] [PF6]] | 335
CCCCn1cc[n+](C)c1.[Cl-] [[C4mim] Cl] | 254
CCCCn1cc[n+](C)c1.[I-] [[C4mim] I] | 265
CCCCn1cc[n+](C)c1.F[P-](F)(F)(F)(F)F [[C4mim] [PF6]] | 349
CCCCCCn1cc[n+](C)c1.[Cl-] [[C6mim] Cl] | 253
CCCCCCn1cc[n+](C)c1.F[P-](F)(F)(F)(F)F [[C6mim] [PF6]] | 417
CCCCCCCCn1cc[n+](C)c1.[Cl-] [[C8mim] Cl] | 243
